Experiments:
Assay in all cases: Kinase inhibitor library screening, PrestoBlue cell viability, 1 or 10 μM, 72 h
IGR37 cells (parental) = details: IGR37 Parental
Description: (§1) After 72 h of treatment, cell viability was assessed using the PrestoBlue Cell Viability Reagent (ThermoFisher Scientific). Measurements were performed with the CLARIOstar Monochromator microplate reader (BMG Labtech).
(§2) Kinase inhibitor library screening. […] Each cell line was treated in its sensitive form (parental), and also as 2 resistant derivatives, which were made resistant to either Vemurafenib (XP) or Dabrafenib (GP). Drugs were added at 2 different concentrations, 1 and 10 μM, for 72 h and cell viability was assessed using the PrestoBlue Cell Viability assay. Results are depicted as % viability compared to untreated cells. Each cell line was analyzed at least in duplicate. […] (XLSX 95 kb)

[1] = system: IGR37-GP cells (Dabrafenib-resistant); details: IGR37 GP
Description: as §1, §2

[2] = system: 501Mel-GP cells (Dabrafenib-resistant); details: 501Mel GP
Description: as §1, §2

[3] = system: IGR37-XP cells (Vemurafenib-resistant); details: IGR37 XP
Description: as §1, §2

A375 cells (parental) = details: A375 Parental
Description: as §1, §2

[4] = system: A375-GP cells (Dabrafenib-resistant); details: A375 GP
Description: as §1, §2

501Mel cells (parental) = details: 501Mel Parental
Description: as §1, §2

[5] = system: A375-XP cells (Vemurafenib-resistant); details: A375 XP
Description: as §1, §2

[6] = system: 501Mel-XP cells (Vemurafenib-resistant); details: 501Mel XP
Description: as §1, §2

## COc1ccc(-c2ccc3c(N4CCOCC4)nc(N4C[C@@H](C)O[C@@H](C)C4)nc3n2)cc1CO [Ku-0063794]
IGR37 cells (parental); 1μΜ, 72 h, in %
  Cell viability in kinase inhibitor library screening, IGR37 Parental, 1μΜ: 73.4
IGR37 cells (parental); 10μΜ, 72 h, in %
  Cell viability in kinase inhibitor library screening, IGR37 Parental, 10μΜ: 23.7
[1]; 10μΜ, 72 h
  Cell viability in kinase inhibitor library screening, IGR37 GP, 10μΜ: 36.1%
[1]; 1μΜ, 72 h, in %
  Cell viability in kinase inhibitor library screening, IGR37 GP, 1μΜ: 76.2
[2]; 1μΜ, 72 h, in %
  Cell viability in kinase inhibitor library screening, 501Mel GP, 1μΜ: 56.6
[2]; 10μΜ, 72 h, in %
  Cell viability in kinase inhibitor library screening, 501Mel GP, 10μΜ: 13.4
[3]; 10μΜ, 72 h
  Cell viability in kinase inhibitor library screening, IGR37 XP, 10μΜ: 12.3%
[3]; 1μΜ, 72 h, in %
  Cell viability in kinase inhibitor library screening, IGR37 XP, 1μΜ: 68.5
A375 cells (parental); 10μΜ, 72 h
  Cell viability in kinase inhibitor library screening, A375 Parental, 10μΜ: 24.0
A375 cells (parental); 1μΜ, 72 h
  Cell viability in kinase inhibitor library screening, A375 Parental, 1μΜ: 63.8
[4]; 1μΜ, 72 h
  Cell viability in kinase inhibitor library screening, A375 GP, 1μΜ: 63.9
[4]; 10μΜ, 72 h
  Cell viability in kinase inhibitor library screening, A375 GP, 10μΜ: 20.8
501Mel cells (parental); 1μΜ, 72 h, in %
  Cell viability in kinase inhibitor library screening, 501Mel Parental, 1μΜ: 71.5
501Mel cells (parental); 10μΜ, 72 h, in %
  Cell viability in kinase inhibitor library screening, 501Mel Parental, 10μΜ: 16.9
[5]; 1μΜ, 72 h
  Cell viability in kinase inhibitor library screening, A375 XP, 1μΜ: 54.3
[5]; 10μΜ, 72 h
  Cell viability in kinase inhibitor library screening, A375 XP, 10μΜ: 19.7
[6]; 1μΜ, 72 h, in %
  Cell viability in kinase inhibitor library screening, 501Mel XP, 1μΜ: 47.2
[6]; 10μΜ, 72 h, in %
  Cell viability in kinase inhibitor library screening, 501Mel XP, 10μΜ: 6.9

## COc1cc2nccc(Oc3ccc(NC(=O)C4(C(=O)Nc5ccc(F)cc5)CC4)cc3)c2cc1OC [XL-184 free base (Cabozantinib)]
IGR37 cells (parental); 1μΜ, in %
  cell viability (kinase inhibitor library screening): 94.2
IGR37 cells (parental); 10μΜ, in %
  cell viability (kinase inhibitor library screening): 42.6
[1]; 1μΜ, in %
  cell viability (kinase inhibitor library screening): 96.8
[1]; 10μΜ, in %
  cell viability (kinase inhibitor library screening): 14.8
[2]; 1μΜ, in %
  cell viability (kinase inhibitor library screening): 76.7
[2]; 10μΜ, in %
  cell viability (kinase inhibitor library screening): 38.8
[3]; 1μΜ, in %
  cell viability (kinase inhibitor library screening): 90.6
[3]; 10μΜ, in %
  cell viability (kinase inhibitor library screening): 3.1
A375 cells (parental); 1μΜ, in %
  cell viability (kinase inhibitor library screening): 98.4
A375 cells (parental); 10μΜ, in %
  cell viability (kinase inhibitor library screening): 40.5
[4]; 1μΜ, in %
  cell viability (kinase inhibitor library screening): 97.8
[4]; 10μΜ, in %
  cell viability (kinase inhibitor library screening): 41.3
501Mel cells (parental); 1μΜ, in %
  cell viability (kinase inhibitor library screening): 90.2
501Mel cells (parental); 10μΜ, in %
  cell viability (kinase inhibitor library screening): 73.6
[5]; 10μΜ, in %
  cell viability (kinase inhibitor library screening): 51.6
[6]; 1μΜ, in %
  cell viability (kinase inhibitor library screening): 58.9
[6]; 10μΜ, in %
  cell viability (kinase inhibitor library screening): 24.9

## CNC(=O)c1ccc(-c2cnc3ncc(Cc4ccc5ncccc5c4)n3n2)cc1F [INCB28060]
IGR37 cells (parental); 1μΜ, 72 h
  cell viability (kinase inhibitor library screening): 106.9%
IGR37 cells (parental); 10μΜ, 72 h
  cell viability (kinase inhibitor library screening): 100.3%
[1]; 1μΜ, 72 h
  cell viability (kinase inhibitor library screening): 97.1%
[1]; 10μΜ, 72 h
  cell viability (kinase inhibitor library screening): 85.7%
[2]; 1μΜ, 72 h
  cell viability (kinase inhibitor library screening): 81.7%
[2]; 10μΜ, 72 h
  cell viability (kinase inhibitor library screening): 67.0%
[3]; 1μΜ, 72 h
  cell viability (kinase inhibitor library screening): 98.3%
[3]; 10μΜ, 72 h
  cell viability (kinase inhibitor library screening): 47.6%
A375 cells (parental); 1μΜ, 72 h
  cell viability (kinase inhibitor library screening): 103.1%
[4]; 1μΜ, 72 h
  cell viability (kinase inhibitor library screening): 103.9%
[4]; 10μΜ, 72 h
  cell viability (kinase inhibitor library screening): 95.7%
501Mel cells (parental); 1μΜ, 72 h
  cell viability (kinase inhibitor library screening): 99.4%
501Mel cells (parental); 10μΜ, 72 h
  cell viability (kinase inhibitor library screening): 93.5%
[5]; 1μΜ, 72 h
  cell viability (kinase inhibitor library screening): 106.9%
[5]; 10μΜ, 72 h
  cell viability (kinase inhibitor library screening): 103.3%
[6]; 1μΜ, 72 h
  cell viability (kinase inhibitor library screening): 68.2%
[6]; 10μΜ, 72 h
  cell viability (kinase inhibitor library screening): 62.9%

From article PMC6364417, “Kinase inhibitor library screening identifies synergistic drug combinations effective in sensitive and resistant melanoma cells” (Journal of Experimental & Clinical Cancer Research : CR, 2019)
